Active and inactive are the calls of the source. No rule for the calls is given here.
Test system: CCRIS mutagenicity, Ames/micronucleus/aberration tests
Assay: CCRIS mutagenicity studies
[1] = Test System: AMES SALMONELLA TYPHIMURIUM, Strain/Indicator: TA97, Metabolic Activation: NONE, Method: PREINCUBATION
[2] = Test System: AMES SALMONELLA TYPHIMURIUM, Strain/Indicator: TA98, Metabolic Activation: NONE, Method: PREINCUBATION
[3] = Test System: AMES SALMONELLA TYPHIMURIUM, Strain/Indicator: TA100, Metabolic Activation: NONE, Method: PREINCUBATION
[4] = Test System: AMES SALMONELLA TYPHIMURIUM, Strain/Indicator: TA100, Metabolic Activation: RAT, LIVER, S-9, AROCLOR 1254 (10%), Method: PREINCUBATION
[5] = Test System: AMES SALMONELLA TYPHIMURIUM, Strain/Indicator: TA1535, Metabolic Activation: NONE, Method: PREINCUBATION
[6] = Test System: AMES SALMONELLA TYPHIMURIUM, Strain/Indicator: TA1535, Metabolic Activation: RAT, LIVER, S-9, AROCLOR 1254 (10%), Method: PREINCUBATION
[7] = Test System: AMES SALMONELLA TYPHIMURIUM, Strain/Indicator: TA1537, Metabolic Activation: NONE, Method: PREINCUBATION

Cc1ccccc1C#N
mutagenic call (Test System: AMES SALMONELLA TYPHIMURIUM, Strain/Indicator: TA97, Metabolic Activation: HAMSTER, LIVER, S-9, AROCLOR 1254 (10 OR 30%), Method: PREINCUBATION): inactive; negative | mutagenic call [1]: inactive; negative | mutagenic call (Test System: AMES SALMONELLA TYPHIMURIUM, Strain/Indicator: TA97, Metabolic Activation: RAT, LIVER, S-9, AROCLOR 1254 (10%), Method: PREINCUBATION): inactive; negative | mutagenic call (Test System: AMES SALMONELLA TYPHIMURIUM, Strain/Indicator: TA97, Metabolic Activation: RAT, LIVER, S-9, AROCLOR 1254 (30%), Method: PREINCUBATION): inactive; negative | mutagenic call (Test System: AMES SALMONELLA TYPHIMURIUM, Strain/Indicator: TA98, Metabolic Activation: HAMSTER, LIVER, S-9, AROCLOR 1254 (10 OR 30%), Method: PREINCUBATION): inactive; negative | mutagenic call [2]: inactive; negative | mutagenic call (Test System: AMES SALMONELLA TYPHIMURIUM, Strain/Indicator: TA98, Metabolic Activation: RAT, LIVER, S-9, AROCLOR 1254 (10 OR 30%), Method: PREINCUBATION): inactive; negative | mutagenic call (Test System: AMES SALMONELLA TYPHIMURIUM, Strain/Indicator: TA100, Metabolic Activation: HAMSTER, LIVER, S-9, AROCLOR 1254 (10 OR 30%), Method: PREINCUBATION): inactive; negative | mutagenic call [3]: inactive; negative | mutagenic call [4]: inactive; negative | mutagenic call (Test System: AMES SALMONELLA TYPHIMURIUM, Strain/Indicator: TA100, Metabolic Activation: RAT, LIVER, S-9, AROCLOR 1254 (30%), Method: PREINCUBATION): inactive; negative | mutagenic call (Test System: AMES SALMONELLA TYPHIMURIUM, Strain/Indicator: TA1535, Metabolic Activation: HAMSTER, LIVER, S-9, AROCLOR 1254 (10 OR 30%), Method: PREINCUBATION): inactive; negative | mutagenic call [5]: inactive; negative | mutagenic call [6]: inactive; negative | mutagenic call (Test System: AMES SALMONELLA TYPHIMURIUM, Strain/Indicator: TA1535, Metabolic Activation: RAT, LIVER, S-9, AROCLOR 1254 (30%), Method: PREINCUBATION): inactive; negative | mutagenic call (Test System: MOUSE LYMPHOMA, Strain/Indicator: L5178Y (TK+/TK-), Metabolic Activation: RAT, LIVER, S-9, AROCLOR 1254, Method: SUSPENSION/PLATE): active; positive. reevaluation of results: positive | mutagenic call (Test System: Mouse lymphoma, Strain/Indicator: L5178Y (tk+/tk-), Metabolic Activation: None, Method: Suspension/plate): inactive; negative

Cc1ccc2c([N+](=O)[O-])cccc2c1
mutagenic call [2]: active; positive

O=NN(C1CCCCC1)C1CCCCC1
mutagenic call (End Point: IN VITRO MICRONUCLEUS, Test System: HUMAN LYMPHOCYTES, Metabolic Activation: NONE): active; positive

CNC(=O)CNC(=O)C=[N+]=[N-]
mutagenic call (Test System: UDS RODENT CELLS, Strain/Indicator: THY INCORP (NON-S-PHASE), Metabolic Activation: NONE, Method: AUTORADIOGRAPHY): active; positive

Cc1ccc2cc3c(ccc4ccccc43)c3c2c1CC3=O
mutagenic call (Test System: CHINESE HAMSTER V-79, Strain/Indicator: V-79/8-AZAGUANINE, Metabolic Activation: RAT, LIVER, S-9, AROCLOR 1254, Method: STANDARD PLATE): active; positive

Nc1ccc(N)c2ccccc12
mutagenic call (Test System: AMES SALMONELLA TYPHIMURIUM, Strain/Indicator: TA98, Metabolic Activation: HAMSTER, LIVER, S-9, AROCLOR 1254 (5%), Method: PREINCUBATION): inactive; negative | mutagenic call (Test System: AMES SALMONELLA TYPHIMURIUM, Strain/Indicator: TA98, Metabolic Activation: HAMSTER, LIVER, S-9, AROCLOR 1254 (30%), Method: PREINCUBATION): active; positive | mutagenic call [2]: inactive; negative | mutagenic call (Test System: AMES SALMONELLA TYPHIMURIUM, Strain/Indicator: TA98, Metabolic Activation: RAT, LIVER, S-9, AROCLOR 1254 (5, 10 OR 30%), Method: PREINCUBATION): inactive; negative | mutagenic call (Test System: AMES SALMONELLA TYPHIMURIUM, Strain/Indicator: TA98, Metabolic Activation: RAT, LIVER, S-9, AROCLOR 1254 (10%), Method: PREINCUBATION): inactive; negative | mutagenic call (Test System: AMES SALMONELLA TYPHIMURIUM, Strain/Indicator: TA100, Metabolic Activation: HAMSTER, LIVER, S-9, AROCLOR 1254 (5%), Method: PREINCUBATION): inactive; negative | mutagenic call (Test System: AMES SALMONELLA TYPHIMURIUM, Strain/Indicator: TA100, Metabolic Activation: HAMSTER, LIVER, S-9, AROCLOR 1254 (30%), Method: PREINCUBATION): active; positive | mutagenic call (Test System: AMES SALMONELLA TYPHIMURIUM, Strain/Indicator: TA100, Metabolic Activation: RAT, LIVER, S-9, AROCLOR 1254 (5, 10 OR 30%), Method: PREINCUBATION): inactive; negative | mutagenic call [4]: inactive; negative | mutagenic call (Test System: AMES SALMONELLA TYPHIMURIUM, Strain/Indicator: TA1535, Metabolic Activation: HAMSTER, LIVER, S-9, AROCLOR 1254 (10%), Method: PREINCUBATION): inactive; negative | mutagenic call [5]: inactive; negative | mutagenic call [6]: inactive; negative | mutagenic call (Test System: AMES SALMONELLA TYPHIMURIUM, Strain/Indicator: TA1537, Metabolic Activation: HAMSTER, LIVER, S-9, AROCLOR 1254 (10%), Method: PREINCUBATION): inactive; negative | mutagenic call [7]: inactive; negative | mutagenic call (Test System: AMES SALMONELLA TYPHIMURIUM, Strain/Indicator: TA1537, Metabolic Activation: RAT, LIVER, S-9, AROCLOR 1254 (10%), Method: PREINCUBATION): inactive; negative

O=C1C=Cc2ccc3c4c(ccc1c24)C(=O)c1ccccc1-3
mutagenic call (Test System: CHINESE HAMSTER V-79, Strain/Indicator: V-79/8-AZAGUANINE, Metabolic Activation: NONE, Method: STANDARD PLATE): active; positive

CCCCCCCCCCC1CO1 (stereo not drawn)
mutagenic call (Test System: AMES SALMONELLA TYPHIMURIUM, Strain/Indicator: TA97, Metabolic Activation: HAMSTER, LIVER, S-9, AROCLOR 1254 (30%), Method: PREINCUBATION): inactive; negative | mutagenic call [1]: inactive; negative | mutagenic call (Test System: AMES SALMONELLA TYPHIMURIUM, Strain/Indicator: TA97, Metabolic Activation: RAT, LIVER, S-9, AROCLOR 1254 (10% & 30%), Method: PREINCUBATION): inactive; negative | mutagenic call (Test System: AMES SALMONELLA TYPHIMURIUM, Strain/Indicator: TA98, Metabolic Activation: HAMSTER, LIVER, S-9, AROCLOR 1254 (10% & 30%), Method: PREINCUBATION): inactive; negative | mutagenic call [2]: inactive; negative | mutagenic call (Test System: AMES SALMONELLA TYPHIMURIUM, Strain/Indicator: TA98, Metabolic Activation: RAT, LIVER, S-9, AROCLOR 1254 (10% & 30%), Method: PREINCUBATION): inactive; negative | mutagenic call (Test System: AMES SALMONELLA TYPHIMURIUM, Strain/Indicator: TA100, Metabolic Activation: HAMSTER, LIVER, S-9, AROCLOR 1254 (10% & 30%), Method: PREINCUBATION): inactive; negative | mutagenic call [3]: inactive; negative | mutagenic call (Test System: AMES SALMONELLA TYPHIMURIUM, Strain/Indicator: TA100, Metabolic Activation: RAT, LIVER, S-9, AROCLOR 1254 (10% & 30%), Method: PREINCUBATION): inactive; negative | mutagenic call (Test System: AMES SALMONELLA TYPHIMURIUM, Strain/Indicator: TA1535, Metabolic Activation: HAMSTER, LIVER, S-9, AROCLOR 1254 (10% & 30%), Method: PREINCUBATION): inactive; negative | mutagenic call [5]: inactive; negative | mutagenic call (Test System: AMES SALMONELLA TYPHIMURIUM, Strain/Indicator: TA1535, Metabolic Activation: RAT, LIVER, S-9, AROCLOR 1254 (10% & 30%), Method: PREINCUBATION): inactive; negative | mutagenic call (Test System: AMES SALMONELLA TYPHIMURIUM, Strain/Indicator: TA1537, Metabolic Activation: HAMSTER, LIVER, S-9, AROCLOR 1254 (10% & 30%), Method: PREINCUBATION): inactive; negative | mutagenic call [7]: inactive; negative | mutagenic call (Test System: AMES SALMONELLA TYPHIMURIUM, Strain/Indicator: TA1537, Metabolic Activation: RAT, LIVER, S-9, AROCLOR 1254 (10% & 30%), Method: PREINCUBATION): inactive; negative | mutagenic call (Test System: UDS MOUSE EPIDERMIS IN VIVO/IN VITRO, Strain/Indicator: HOS:HR-1/THYMIDINE INCORPORATION, Metabolic Activation: NONE, Method: LIQUID SCINTILLATION): inactive; negative

Source: PubChem BioAssay AID1259407 (Chemical Carcinogenesis Research Information System (CCRIS), 2018)
